As usually defined, the IC50 is the midpoint of a concentration-inhibition curve. For orientation: CC50 means the concentration giving 50% cytotoxicity. Read a high CC50 as better tolerance by the cells. A word on the Papp A→B: it is how fast a substance crosses the layer from the apical side. A higher Papp A→B goes with fast passage. By efflux ratio is commonly meant the permeability from basolateral to apical divided by that in the opposite direction, in the common usage.

Structures can show the parent of a compound that is named as a salt. A value given as a limit tells only on which side of the number the result lay.

The values below come from patent publication US11840531B2, “CDK8/19 inhibitors” (JOINT STOCK COMPANY “BIOCAD”, priority 2018, dated 2023).

One series deals with MV4-11 cells. The series can be described thus: Antiproliferative activity, MV4-11 cells (AlamarBlue). The following applies: Homo sapiens, 120 h incubation, read-out: MV-4-11 IC50. Format: cell-based. As to the method: (§1) Antiproliferative activity of CDK8 inhibitors according to the present invention was measured in a cell-based test on continuous cell cultures MV4-11 (biphenotypic myelomonocytic leukemia, ATCC® CRL-9591™), KG-1 (acute myeloid leukemia, ATCC® CCL-246™) using a vital stain AlamarBlue (ThermoFisher, #DAL1100). The cells were grown in RPMI-1640 (PanEco, #C330p) medium with addition of 10% FBS (Gibco, #16140-071); washed and resuspended in culture medium with 10% FBS (Gibco, #16140-071) in 96-well culture plates (Corning, #3599) with ≈10×10^3 cells in […] of medium per well. The compounds in question were dissolved in DMSO and diluted with a medium with 10% FBS (Gibco, #16140-071) to a final concentration ranging from 0 to 100 μM. […] of diluted compounds were then added to each well (final DMSO concentration was less than 1%) and incubated under 5% CO2 atmosphere at 37° C. for 120 h. After incubating, 15 μL/well of AlamarBlue (ThermoFisher, #DAL1100) reagent was added, contents of plates were mixed in an orbital shaker (Biosan, Latvia) and further incubated for 3-5 h at 37° C. under 5% CO2 atmosphere. Number of living cells was estimated using a microplate spectrophotometer (Tecan Infinite M200Pro, Switzerland) measuring fluorescent signal at the excitation wavelength (λEx) of 540 nm and emission wavelength (λEm) of 590 nm.
(§2) IC50 values were calculated using Magellan 7.2 software (Tecan, Switzerland) approximating experimental points by four-parameter logistic model with the optimization by Levenberg-Marquardt (Table 6).
In general terms: Alamar Blue is a resazurin reagent that responds to reducing activity.

The subject of the next series is KG-1 cells. The series can be described thus: Antiproliferative activity, KG-1 cells (AlamarBlue). The conditions noted are these: 120 h incubation. Format: cell-based. As for the experimental part: as §1, §2
In another series the target is CDK8/Cyclin C (Homo sapiens (Human), UniProt P49336). The experiment in a line: LanthaScreen binding to recombinant CDK8/Cyclin C. The conditions noted are these: TR-FRET, Tracer 236 10 nM, CDK8/Cyclin C 5 nM. As for the experimental part: Capability of compounds of the present invention to bind to CDK8 protein was detected using LanthaScreen (ThermoFisher) assay. We detected FRET signal proportional to the amount of CDK8-bound fluorescently-labeled ligand (Tracer 236) that competes with inhibitor for ATP binding site. We carried out the measurements in a 15 μl reaction volume using a 384-well plate (Corning, #CLS4513). Enzyme CDK8/Cyclin C (ThermoFisher, #PR7261B) was mixed with antibodies Anti-His-tag-Biotin (ThermoFisher, #PV6090), Streptavidin-Eu (ThermoFisher, #PV6025), the resulting mixture was added to plate wells (5 MKπ/well). Final concentrations of substances were as follows: CDK8/Cyclin C—5 nM, Streptavidin-Eu—3 nM, Anti-His-tag-Biotin—3 nM. Staurosporine (S4400, Sigma) was used as a reference inhibitor, and 0.1% solution of dimethyl sulphoxide (DMSO) in reaction buffer was used as a blank, the reaction buffer comprised 250 mM HEPES (pH 7.5), 50 mM MgCl2, 5 mM EGTA, and 0.05% Brij-35.
CDK8/Cyclin C, sequence (P49336 whole entry): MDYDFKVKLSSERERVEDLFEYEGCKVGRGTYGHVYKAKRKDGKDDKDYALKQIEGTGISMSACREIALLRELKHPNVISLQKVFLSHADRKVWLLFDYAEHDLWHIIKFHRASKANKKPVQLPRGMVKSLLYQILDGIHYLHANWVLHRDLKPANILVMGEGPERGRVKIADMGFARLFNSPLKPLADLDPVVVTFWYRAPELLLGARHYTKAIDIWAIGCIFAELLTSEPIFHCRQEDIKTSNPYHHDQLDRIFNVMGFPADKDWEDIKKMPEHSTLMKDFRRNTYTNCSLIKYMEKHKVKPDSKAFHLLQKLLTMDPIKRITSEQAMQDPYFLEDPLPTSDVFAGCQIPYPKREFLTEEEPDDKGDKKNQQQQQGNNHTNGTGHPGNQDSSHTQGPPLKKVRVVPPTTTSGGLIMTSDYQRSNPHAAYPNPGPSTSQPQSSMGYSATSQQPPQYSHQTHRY
CDK8/Cyclin C, sequence (P24863 whole entry partner): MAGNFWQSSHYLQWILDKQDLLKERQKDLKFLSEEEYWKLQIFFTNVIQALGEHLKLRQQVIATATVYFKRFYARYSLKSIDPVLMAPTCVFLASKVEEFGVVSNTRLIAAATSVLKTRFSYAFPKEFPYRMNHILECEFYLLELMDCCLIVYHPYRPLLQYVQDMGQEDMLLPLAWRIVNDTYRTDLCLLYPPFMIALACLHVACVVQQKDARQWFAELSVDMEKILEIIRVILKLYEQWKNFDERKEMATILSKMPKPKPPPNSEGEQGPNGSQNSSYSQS
The inhibitors and controls in question were added to corresponding wells (5 μl/well). The plate was incubated at room temperature for 20 minutes. After incubating, 5 μl/well of tracer solution Alexa Fluor-647 (Kinase Tracer 236, ThermoFisher, #PV5592)) was added to the wells. Final concentration of tracer was 10 nM. Reaction buffer, instead of tracer solution, was used as a negative control. The plate was incubated for 40 minutes at 25° C., TR-FRET signal was then measured according to the manufacturer's guidelines on SPARK20 plate reader (Tecan, Switzerland), and the value was converted to the amount of kinase-bound tracer. IC50 values were calculated using SparkControl Magellan 1.2 software (Tecan, Switzerland) approximating experimental points by four-parameter logistic model with the optimization by Levenberg-Marquardt (Table 5).
(Time-resolved FRET reads energy transfer from a long-lived donor to a nearby acceptor.)

Series [1] in a line: General cytotoxicity on HepG2 cells. Format: cell-based. The following applies: human, 72 h incubation. As for the experimental part:
The CC50 values were determined in the test for General cytotoxicity On HepG2 cells (hepatocellular carcinoma, ATCC® HB-8065™). Cells per well were seeded in 96-well plates (Corning, #3599) at a concentration ≈20×10^3 cells in 100 μL of medium and incubated for 72 h with added compounds within the range of concentrations of 200 to 0.78 μM. Cell viability was assessed using the above method.

Series [2] can be described thus: Stability of the compounds in human blood plasma. Format: in vitro ADME. The conditions noted are these: pooled human blood plasma, 10 μM, 4 hours at 37° C. As to the method:
To assess the blood plasma stability of the compounds, we used pooled human blood plasma taken from ten healthy donors. The initial candidate solution (10 mM in DMSO) was diluted with pooled blood plasma to a concentration of 10 μm (test solution). The test solution was incubated in a dry block thermostat for 4 hours at 37° C. HPLC with Agilent 1200 liquid chromatography system (Agilent, USA) was employed to determine peak areas of the compounds in test samples, said peak areas corresponding to the initial test time (prior to incubation) and the final test time (after incubation in a dry block thermostat for 4 hours at 37° C.), proteins were preliminarily precipitated with acetonitrile. Chromatographic analysis was performed in a gradient elution regime with a flow rate of 1 mL/min Substance amount in % in a sample after thermostatting was determined.
The stability of the compounds was estimated. The compounds described herein show at least 90% chemical stability, i.e. they are chemically stable in human blood plasma (Table 2).

A short description of series [3]: Permeability through Caco-2 cell monolayer. Format: in vitro ADME. The conditions noted are these: human; for Papp A→B at 2 h, 10 μM: Caco-2, A→B, pH 6.5/7.4, 2 hour incubation; for efflux ratio at 2 h, 10 μM: Caco-2, Papp B-A/Papp A-B. As to the method:
Estimation of permeability through Caco-2 cell monolayer enables assessment of the ability of the substances to penetrate through biological membranes by means of both active and passive transport.
Intestinal epithelial cells Caco-2 were grown on filter inserts (pore size 0.4 jam, BD Falcon with High Density) for 21 days; monolayer integrity was then checked using Lucifer Yellow (Sigma-Aldrich, USA) according to the standard protocol. In A→B transfer (“intestinal lumen”-“blood stream” transfer), solutions of the test substances in buffer, pH 6.5 (HBSS, 10 mM HEPES, 15 mM glucose) at a concentration of 10 μM were added to the upper chamber; whereas the lower chamber was filled with buffer, pH 7.4 (HBSS, 10 mM HEPES, 15 mM Glucose, 1% BSA). In B→A transfer (“blood stream”-“intestinal lumen” transfer), the upper chamber was filled with buffer, pH 6.5, whereas the solutions of the test substances in buffer, pH 7.4, at a concentration of 10 μM were added to the lower chamber. A highly permeable substance propranolol was used as a control.
After 2 hour incubation at 37° C. under an atmosphere containing 5% CO2, the amounts of the test substances in the upper and lower chambers were measured by HPLC using an Agilent1200 HPLC system (Agilent, USA), proteins were preliminarily precipitated with acetonitrile. Chromatographic analysis was performed in a gradient elution regime with a flow rate of 1 mL/min. The peak areas corresponding to the compounds were detected on chromatograms. Based on the peak areas of a compound in the calibration standards, concentration of the compound in the initial solution and in the samples from upper chamber wells and lower chamber wells was measured.
Cellular permeability coefficient Papp was calculated by the formula: Papp=(Ca(t)*Va)/(Cd(0)*t*Area), where Papp is the effective permeability constant, m/s V is the volume of solution (0.8 ml in A→B test, 0.2 ml in B→A test), ml Area is the membrane surface area (0.33 cm^2), cm^2 t is the time of incubation (7200 sec), sec Cd(0) is the initial solution concentration, μM Ca(t) is the concentration of the solution after 2 hours (the concentration in the sample from the well of the lower chamber in A→B test; the concentration in the sample from the well of the top chamber in B→A test), μM
The value was calculated by the following formula: efflux=Papp B-A/Papp A-B, where Pape A-B-direct A→B test permeability value Papp B-A-reverse B→A test permeability value
In general terms: Caco-2 monolayers are a common model of the intestinal barrier.

On to `CN(C)C(=O)Cn1cc(-c2ccc(-c3cnc(N)c4ncc(C(=O)NCC5CC5)cc34)cc2)cn1` [Compound 3.43, 8-Amino-N-(cyclopropylmethyl)-5-(4-(1-(2-(dimethylamino)-2-oxoethyl)-1H-pyrazole-4-yl)phenyl)-1,7-naphthyridine-3-carboxamide], for which the IC50 in the series on MV4-11 cells stood at 0.5 nM; in the series on KG-1 cells (Homo sapiens, KG-1, 120 h), 0.2 nM; on CDK8/Cyclin C, 0.88 nM. The CC50 at 72 h in series [1] came to 68100 nM. Besides, the “Chemical stability in human blood plasma 4 h, %” value (“Chemical stability … %” for short) in series [2] was found to be 100.0%. Besides, the Papp A→B at 2 h, 10 μM in series [3] was 157 nm/s. In addition, the efflux ratio at 2 h, 10 μM in series [3] came out at 1.89.
With `COCCN(C)C(=O)c1cnc2c(N)ncc(-c3ccc(-c4cnn(CC(=O)N5CCN(C)CC5)c4)cc3)c2c1` [Compound 3.56, 8-amino-N-(2-methoxyethyl)-N-methyl-5-(4-(1-(2-(4-methylpiperazine-1-yl)-2-oxoethyl)-1H-pyrazole-4-yl)phenyl)-1,7-naphthyridine-3-carboxamide], the concentration for half-maximal inhibition (IC50) in the series on KG-1 cells (Homo sapiens, KG-1, 120 h) is 13.8 nM; at CDK8/Cyclin C, 1.07 nM. Besides, in series [1], the half-maximal cytotoxic concentration (CC50) at 72 h is above 100000 nM.
With `COCCn1cc(-c2ccc(-c3cnc(N)c4ncc(C(=O)N5CCN(C)CC5)cc34)cc2)cn1` [Compound 3.51, (8-amino-5-(4-(1-(2-methoxyethyl)-1H-pyrazole-4-yl)phenyl)-1,7-naphthyridin-3-yl)(4-methylpiperazine-1-yl)methanone], the IC50 turned out to be 16.9 nM with MV4-11 cells; 12.9 nM with KG-1 cells (Homo sapiens, KG-1, 120 h); 1.44 nM on CDK8/Cyclin C. Moreover, the CC50 at 72 h in series [1] is above 100000 nM. The “Chemical stability … %” value in series [2] was found to be 100.0%. In addition, the apparent permeability from apical to basolateral (Papp A→B) at 2 h, 10 μM in series [3] worked out at 262 nm/s. Further, the efflux ratio at 2 h, 10 μM in series [3] was determined as 1.88.
Take `CN1CCN(C(=O)Cn2cc(-c3ccc(-c4cnc(N)c5ncc(C(=O)NCC6CC6)cc45)cc3)cn2)CC1` [Compound 3.44, 8-amino-N-(cyclopropylmethyl)-5-(4-(1-(2-(4-methylpiperazin-1-yl)-2-oxoethyl)-1H-pyrazole-4-yl)phenyl)-1,7-naphthyridine-3-carboxamide]: the IC50 amounted to 0.7 nM in the series with MV4-11 cells; 0.7 nM with KG-1 cells (Homo sapiens, KG-1, 120 h); 1.4 nM at CDK8/Cyclin C. The molecule further gave a CC50 at 72 h in series [1] of 65300 nM. The “Chemical stability … %” value in series [2] is reported as 100.0%.
For the molecule `COCCn1cc(-c2ccc(-c3cnc(N)c4ncc(C(=O)N5CCC5)cc34)cc2)cn1` [Compound 3.54, (8-amino-5-(4-(1-(2-methoxyethyl)-1H-pyrazole-4-yl)phenyl)-1,7-naphthyridin-3-yl) (azetidin-1-yl)methanone], the IC50 in the series on MV4-11 cells is 15.8 nM; in the series with KG-1 cells (Homo sapiens, KG-1, 120 h), 12.2 nM; on CDK8/Cyclin C it was 1.27 nM. Moreover, the CC50 at 72 h in series [1] is around 90000 nM. Moreover, the “Chemical stability … %” value in series [2] came to 94.6%. The molecule further had a Papp A→B at 2 h, 10 μM in series [3] of 428 nm/s. Moreover, in series [3], the efflux ratio at 2 h, 10 μM came out at 0.55.
For the molecule `COCCN(C)C(=O)c1cnc2c(N)ncc(-c3ccc(-c4cnn(CCOC)c4)cc3)c2c1` [Compound 3.57, 8-amino-N-(2-methoxyethyl)-5-(4-(1-(2-methoxyethyl)-1H-pyrazole-4-yl)phenyl)-N-methyl-1,7-naphthyridine-3-carboxamide], the 50% inhibitory concentration (IC50) in the series with KG-1 cells (Homo sapiens, KG-1, 120 h) was found to be 17.1 nM; at CDK8/Cyclin C, 2.27 nM. Besides, in series [1], the CC50 at 72 h was around 90000 nM.
The matching figures for `COCCN(C)C(=O)c1cnc2c(N)ncc(-c3ccc(-c4cnn(CC(=O)N(C)C)c4)cc3)c2c1` [Compound 3.55]: 6.5 nM, 1.24 nM and above 100000 nM.
`CN1CCN(C(=O)Cn2cc(-c3ccc(-c4cnc(N)c5ncc(C(=O)N6CCN(C)CC6)cc45)cc3)cn2)CC1` [Compound 3.50, 2-(4-(4-(8-amino-3-(4-methylpiperazine-1-carbonyl)-1,7-naphthyridine-5-yl)phenyl)-1H-pyrazole-1-yl)-1-(4-methylpiperazine-1yl)ethan-1-one]: the IC50 in the series on MV4-11 cells was 3.8 nM; in the series with KG-1 cells (Homo sapiens, KG-1, 120 h), 26.6 nM; at CDK8/Cyclin C it was 2.03 nM. The molecule also had a CC50 at 72 h in series [1] above 100000 nM.
Take `CN1CCN(C(=O)c2cnc3c(N)ncc(-c4ccc(-c5cnn(CC(=O)N(C)C)c5)cc4)c3c2)CC1` [Compound 3.49 × 2HCl, 2-(4-(4-(8-amino-3-(4-methylpiperazine-1-carbonyl)-1,7-naphthyridine-5-yl)phenyl)-1H-pyrazole-1-yl)-N,N-dimethylacetamide dihydrochloride]: the IC50 in the series with KG-1 cells (dihydrochloride) is 16 nM; at CDK8/Cyclin C, 1.64 nM.
